Converted amounts (≈) assume the structure as drawn.
What was measured:
[1] = Study on polymorphism of Compound 1 (suspension in solvents, XRPD); assay type: physicochemical; details: for Crystal form: 40° C., 2 days
Description: Approximate 50 mg of the sample were weighed and added to separate 4.0 mL glass vials, respectively, followed by addition of an appropriate amount of the solvents or solvent mixture (see the table below) to give a suspension. After shaking at 40° C. for 2 days, all the samples were taken out and centrifuged in a centrifuge at 8000 r/min for 5 minutes. The supernatant was discarded, and the remaining solid was dried in a 35° C. vacuum drying box for two days. The dried samples were taken out for XRPD detection.

TNF-α = assay: Ex-vivo effect on endotoxin LPS-induced TNF-α in rat blood (ELISA); assay type: cell-based, Sprague Dawley rats
Description: Experimental objective: testing the effect of Compound 1 on bacterial lipopolysaccharide (LPS)-induced TNF-α in rat blood to evaluate the anti-inflammatory effect ex-vivo
Sprague Dawley rats (male, 280-310 g, Shanghai Slac Laboratory Animal CO. LTD)
Rat TNF-alpha Quantikine ELISA Kit (R&D, #SRTA00)
A solution of the compound was prepared (5 mM or 1 mM), and 40 μL of the prepared solution was added into a 48-well cell culture plate, respectively (the final concentration of the compounds was 0.5 or 0.1 mM). The rats were anaesthetized with isoflurane and the blood was collected from the abdominal aorta (Heparin anticoagulant). The blood was added into the 48-well cell culture plate (320 μL per well) containing the compounds to be tested. Afterwards, the 48-well cell culture plate was incubated at 37° C. for 30 minutes. Then the plate was taken out, and 40 μL of LPS (the final concentration was 100 μg/mL) was added and mixed evenly. The resulting mixture was incubated at 37° C. After 5 hours, the 48-well plate was taken out and the blood was transferred into 1.5 mL centrifuge tubes and centrifuged in a centrifuge (4,500 rpm, 4° C., 5 min). The supernatant was isolated to obtain the plasma, which was aliquoted (20 μL per well) into a 96-well sample plate, and then sharp-frozen and preserved in a refrigerator (−80° C.). On the second day, the TNF-α level in the plasma samples was determined by using R&D ELISA kits according to the kit specification. The data was analyzed by EXCEL and Prism.

[2] = Solid-state physical stability test of crystal form A under different temperature, humidity and light irradiation; assay type: physicochemical; details: for Appearance / Crystal form: 10 d
Description: 4 samples of 100 mg of crystal form A solid were weighed in parallel and spread evenly on the bottom of the glass bottles into a thin layer. The bottles were sealed with aluminum foil, and some small holes were punched on the aluminum foil to allow the sample to be fully in contact with the ambient air. The 4 samples prepared were placed under the conditions of 25° C./92.5% RH, 60° C., 40° C./75% RH and light irradiation, and the physical stability of the samples on the 10th day was examined. In the meantime, about 100 mg of crystal form A solid was weighed separately, placed on the bottom of a glass sample bottle, sealed with a screw cap and stored at −20° C., this sample was used as the control sample. On the 10th day, all samples were taken out, and returned to room temperature. The appearance change of the samples was observed, and XRPD was used to detect the crystal form of the samples. By comparing the accelerated samples with the control sample, the solid-state physical stability of crystal form A of Compound 1 was determined.

[3] = test system: idiopathic pulmonary fibrosis; assay: SD rat left unilateral pulmonary fibrosis model; assay type: in vivo
[4] = Solid-state stability test of crystal form A under high temperature and high humidity (HPLC, XRPD); assay type: physicochemical; details: for Appearance / Crystal form / Purity / Total impurities: open
Description: 16 samples of 10 mg of crystal form A were weighed in parallel and spread evenly on the bottom of glass bottles, and 8 samples of 20 mg of crystal form A were spread out into a thin layer. All sample bottles were sealed with aluminum foil, and some small holes were punched on the aluminum foil to allow the samples to fully contact with the ambient air. The samples were placed at 40° C./75% RH and 60° C./75% RH for 1 month, 2 months and 3 months, respectively.
Analytical method: Agilent 1260 HPLC with DAD detector or Waters 2695 HPLC with PDA detector was used: column: Waters Atlantis dC18 (4.6 mm×150 mm, 3.0 μm); column temperature: 40° C.; flow rate: 1.0 mL/min; detection wavelength: 230 nm; injection volume: 10 μL; sample concentration: 0.5 mg/mL; diluent: acetonitrile:water=1:1 (v/v); the following mobile phase gradients were used for analysis: […]

[5] = Approximate solubility of crystal form A in different solvents (manual stepwise dilution); assay type: physicochemical; details: thermodynamic from solid, ambient temperature
Description: In this study, the method of manual stepwise dilution along with the observation of the dissolution under ambient temperature condition was used for determination. About 2 mg of crystal form A of Compound 1 was added to separate HPLC vials, followed by multiple addition of organic solvents or the mixed solvents (Table 5) in a small amount, and the dissolution of the compound was monitored.

With `CC1(c2ccc(=O)n(-c3ccsc3)c2)COC1` [Compound 1] the Crystal form ([1]; suspension in Acetone) was “Form A”, the Crystal form ([1]; suspension in Acetone:Water (1:2)) was “Form A” and the Crystal form ([1]; suspension in Acetonitrile) was “Form A”. The Crystal form ([1]; suspension in Ethanol) was “Form A”, the Crystal form ([1]; suspension in Ethyl acetate) was “Form A” and the Crystal form ([1]; suspension in Water) was “Form A”.

In the case of `Cc1ccc(=O)n(-c2ccccc2)c1` [Pirfenidone (PFD), Pirfenidone, reference compound], the inhibition at 500 µM (TNF-α; rat blood, LPS 100 μg/mL, compound 0.5 mM) is reported as 53.5%.

For `CC1(c2ccc(=O)n(-c3ccsc3)c2)COC1` [crystal form A], the Appearance ([2]; 25° C./92.5% RH (open)) was “White”, the Crystal form ([2]; 25° C./92.5% RH (open)) was “Form A” and the Appearance ([2]; 40° C./75% RH (open)) was “White”. For the same compound, the Crystal form ([2]; 40° C./75% RH (open)) was “Form A”, the Appearance ([2]; 60° C. (open)) was “White” and the Crystal form ([2]; 60° C. (open)) was “Form A”. For the same compound, the Appearance ([2]; Light irradiation) was “White”, the Crystal form ([2]; Light irradiation) was “Form A” and the “Solid-state physical stability (conclusion)” value ([2]; within 10 days under each condition) was “stable”. The “Inhibitory effect on idiopathic pulmonary fibrosis (in words)” value [3] was “significant inhibitory effect”, the “Inhibitory effect on TNF-α level induced by LPS (in words)” value (TNF-α; final concentration 0.1 mM, inhibition significantly higher than Pirfenidone) was “significant inhibitory effect” and the inhibition at 100 µM (TNF-α; rat blood, LPS 100 μg/mL, compound 0.1 mM) was 80.8%. For the same compound, the Appearance ([4]; 40° C./75% RH, 1 M) was “White powder”, the Crystal form ([4]; 40° C./75% RH, 1 M) was “Form A” and the Purity ([4]; 40° C./75% RH, 1 M) was 99.949%. The Total impurities ([4]; 40° C./75% RH, 1 M) was 0.051%, the Appearance ([4]; 40° C./75% RH, 2 M) was “White powder” and the Crystal form ([4]; 40° C./75% RH, 2 M) was “Form A”. The Purity ([4]; 40° C./75% RH, 2 M) was 99.948%, the Total impurities ([4]; 40° C./75% RH, 2 M) was 0.052% and the Appearance ([4]; 40° C./75% RH, 3 M) was “White powder”. The Crystal form ([4]; 40° C./75% RH, 3 M) was “Form A”, the Purity ([4]; 40° C./75% RH, 3 M) was 99.947% and the Total impurities ([4]; 40° C./75% RH, 3 M) was 0.053%. For the same compound, the Appearance ([4]; 60° C./75% RH, 1 M) was “White powder”, the Crystal form ([4]; 60° C./75% RH, 1 M) was “Form A” and the Purity ([4]; 60° C./75% RH, 1 M) was 99.949%. For the same compound, the Total impurities ([4]; 60° C./75% RH, 1 M) was 0.051%, the Appearance ([4]; 60° C./75% RH, 2 M) was “White powder” and the Crystal form ([4]; 60° C./75% RH, 2 M) was “Form A”. The Purity ([4]; 60° C./75% RH, 2 M) was 99.948%, the Total impurities ([4]; 60° C./75% RH, 2 M) was 0.052% and the Appearance ([4]; 60° C./75% RH, 3 M) was “White powder”. The Crystal form ([4]; 60° C./75% RH, 3 M) was “Form A”, the Purity ([4]; 60° C./75% RH, 3 M) was 99.950% and the Total impurities ([4]; 60° C./75% RH, 3 M) was 0.050%. For the same compound, the “Solid-state stability (conclusion)” value ([4]; within three months, 40° C./75% RH and 60° C./75% RH) was “stable”, the solubility ([5]; aqueous with cosolvent or surfactant or cyclodextrin, Acetone-water (1:2)) was 52 to 103 mg/mL (≈ 210 to 416 mM) and the solubility ([5]; aqueous with cosolvent or surfactant or cyclodextrin, Acetonitrile-water (1:1)) was greater than 100 mg/mL. For the same compound, the solubility ([5]; aqueous with cosolvent or surfactant or cyclodextrin, Ethanol-water (1:1)) was greater than 100 mg/mL, the solubility ([5]; aqueous with cosolvent or surfactant or cyclodextrin, Ethanol-water (3:1)) was greater than 104 mg/mL and the solubility ([5]; aqueous with cosolvent or surfactant or cyclodextrin, Isopropanol-water (1:1)) was greater than 102 mg/mL. The solubility ([5]; aqueous with cosolvent or surfactant or cyclodextrin, Methanol-water (1:1)) was greater than 102 mg/mL, the solubility ([5]; aqueous with cosolvent or surfactant or cyclodextrin, Methanol-water (3:1)) was greater than 104 mg/mL and the solubility ([5]; organic solvent or mixture, 1,4-dioxane) was greater than 102 mg/mL. The solubility ([5]; organic solvent or mixture, 2-Methyltetrahydrofuran) was 34 to 51 mg/mL (≈ 137 to 206 mM), the solubility ([5]; organic solvent or mixture, Acetone) was 52 to 103 mg/mL (≈ 210 to 416 mM) and the solubility ([5]; organic solvent or mixture, Acetonitrile) was greater than 100 mg/mL. For the same compound, the solubility ([5]; organic solvent or mixture, Cyclohexane) was less than 2 mg/mL, the solubility ([5]; organic solvent or mixture, Ethanol) was 51 to 102 mg/mL (≈ 206 to 412 mM) and the solubility ([5]; organic solvent or mixture, Ethyl acetate) was 34 to 51 mg/mL (≈ 137 to 206 mM). For the same compound, the solubility ([5]; organic solvent or mixture, Heptane) was less than 2 mg/mL, the solubility ([5]; organic solvent or mixture, Isopropanol) was 34 to 52 mg/mL (≈ 137 to 210 mM) and the solubility ([5]; organic solvent or mixture, Isopropyl acetate) was 20 to 34 mg/mL (≈ 80.9 to 137 mM). For the same compound, the solubility ([5]; organic solvent or mixture, Methanol) was greater than 104 mg/mL, the solubility ([5]; organic solvent or mixture, Methyl ethyl ketone) was 52 to 104 mg/mL (≈ 210 to 421 mM) and the solubility ([5]; organic solvent or mixture, Methyl isobutyl ketone) was 34 to 51 mg/mL (≈ 137 to 206 mM). It also gave a solubility ([5]; organic solvent or mixture, Methyl tert-butyl ether) of less than 2 mg/mL, a solubility ([5]; organic solvent or mixture, Tetrahydrofuran) of 51 to 102 mg/mL (≈ 206 to 412 mM) and a solubility ([5]; organic solvent or mixture, Toluene) of 35 to 52 mg/mL (≈ 142 to 210 mM). For the same compound, the solubility ([5]; organic solvent or mixture, n-butanol) was 50 to 100 mg/mL (≈ 202 to 404 mM), the solubility ([5]; Water) was 10 to 21 mg/mL (≈ 40.4 to 84.9 mM) and the “Stability of crystal form in solvents (conclusion)” value ([1]; under the conditions of the solvents of Table 4) was “stable”.
